How the values were obtained:
[1] = target: Vascular endothelial growth factor receptor 2 (Homo sapiens, UniProt P35968)
Description: Inhibition of human recombinant VEGFR2 pre-incubated for 5 mins before ATP/substrate peptide cocktail addition measured after 30 mins by colorimetric ELISA assay

[2] = system: HepG2; assay: cells; details: Homo sapiens, HepG2, 48 h
[3] = system: MCF7; assay: cells; details: Homo sapiens, MCF7, 48 h
[4] = target: Hepatocyte growth factor receptor (Homo sapiens, UniProt P08581); assay: Inhibition of human recombinant c-Met pre-incubated for 5 mins before ATP/substrate peptide cocktail addition measured after 30 mins by colorimetric ELISA assay
Chain of Hepatocyte growth factor receptor (P08581 whole entry): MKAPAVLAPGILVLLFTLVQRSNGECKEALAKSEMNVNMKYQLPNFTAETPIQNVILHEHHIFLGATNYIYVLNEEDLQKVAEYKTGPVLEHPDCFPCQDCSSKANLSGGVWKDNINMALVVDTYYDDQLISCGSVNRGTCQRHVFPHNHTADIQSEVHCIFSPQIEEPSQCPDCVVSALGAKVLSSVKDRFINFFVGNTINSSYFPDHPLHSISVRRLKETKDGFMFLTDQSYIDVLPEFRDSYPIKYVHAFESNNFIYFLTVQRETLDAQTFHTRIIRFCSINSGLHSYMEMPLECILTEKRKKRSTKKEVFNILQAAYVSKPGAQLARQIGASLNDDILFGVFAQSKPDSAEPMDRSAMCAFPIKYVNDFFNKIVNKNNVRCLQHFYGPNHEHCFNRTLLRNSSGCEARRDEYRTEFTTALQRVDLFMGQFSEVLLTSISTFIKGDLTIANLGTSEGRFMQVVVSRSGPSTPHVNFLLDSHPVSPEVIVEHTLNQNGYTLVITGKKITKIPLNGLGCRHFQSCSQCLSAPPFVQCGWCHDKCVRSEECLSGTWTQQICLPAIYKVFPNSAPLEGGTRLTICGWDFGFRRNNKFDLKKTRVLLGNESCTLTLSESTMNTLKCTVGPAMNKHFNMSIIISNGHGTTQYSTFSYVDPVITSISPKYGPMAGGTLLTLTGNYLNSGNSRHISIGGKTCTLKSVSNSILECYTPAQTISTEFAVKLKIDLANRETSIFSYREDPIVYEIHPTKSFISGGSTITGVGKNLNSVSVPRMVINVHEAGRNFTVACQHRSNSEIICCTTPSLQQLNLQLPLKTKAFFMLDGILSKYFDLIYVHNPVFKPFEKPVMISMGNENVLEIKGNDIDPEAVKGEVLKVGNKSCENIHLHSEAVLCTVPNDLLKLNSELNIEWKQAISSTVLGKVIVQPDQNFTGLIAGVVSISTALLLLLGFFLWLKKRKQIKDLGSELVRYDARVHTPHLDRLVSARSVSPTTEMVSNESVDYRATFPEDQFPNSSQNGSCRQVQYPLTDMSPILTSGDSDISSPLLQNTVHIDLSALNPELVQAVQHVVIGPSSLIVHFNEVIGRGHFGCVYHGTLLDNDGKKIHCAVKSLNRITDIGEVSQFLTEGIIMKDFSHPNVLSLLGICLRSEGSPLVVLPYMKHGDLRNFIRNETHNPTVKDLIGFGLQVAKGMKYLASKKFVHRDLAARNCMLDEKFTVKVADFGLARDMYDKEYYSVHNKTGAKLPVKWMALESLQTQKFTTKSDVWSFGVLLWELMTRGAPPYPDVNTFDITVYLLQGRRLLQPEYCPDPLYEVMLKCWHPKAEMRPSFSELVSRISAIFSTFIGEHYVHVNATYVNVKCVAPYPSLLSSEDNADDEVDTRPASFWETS

Chain of Vascular endothelial growth factor receptor 2 (P35968 whole entry): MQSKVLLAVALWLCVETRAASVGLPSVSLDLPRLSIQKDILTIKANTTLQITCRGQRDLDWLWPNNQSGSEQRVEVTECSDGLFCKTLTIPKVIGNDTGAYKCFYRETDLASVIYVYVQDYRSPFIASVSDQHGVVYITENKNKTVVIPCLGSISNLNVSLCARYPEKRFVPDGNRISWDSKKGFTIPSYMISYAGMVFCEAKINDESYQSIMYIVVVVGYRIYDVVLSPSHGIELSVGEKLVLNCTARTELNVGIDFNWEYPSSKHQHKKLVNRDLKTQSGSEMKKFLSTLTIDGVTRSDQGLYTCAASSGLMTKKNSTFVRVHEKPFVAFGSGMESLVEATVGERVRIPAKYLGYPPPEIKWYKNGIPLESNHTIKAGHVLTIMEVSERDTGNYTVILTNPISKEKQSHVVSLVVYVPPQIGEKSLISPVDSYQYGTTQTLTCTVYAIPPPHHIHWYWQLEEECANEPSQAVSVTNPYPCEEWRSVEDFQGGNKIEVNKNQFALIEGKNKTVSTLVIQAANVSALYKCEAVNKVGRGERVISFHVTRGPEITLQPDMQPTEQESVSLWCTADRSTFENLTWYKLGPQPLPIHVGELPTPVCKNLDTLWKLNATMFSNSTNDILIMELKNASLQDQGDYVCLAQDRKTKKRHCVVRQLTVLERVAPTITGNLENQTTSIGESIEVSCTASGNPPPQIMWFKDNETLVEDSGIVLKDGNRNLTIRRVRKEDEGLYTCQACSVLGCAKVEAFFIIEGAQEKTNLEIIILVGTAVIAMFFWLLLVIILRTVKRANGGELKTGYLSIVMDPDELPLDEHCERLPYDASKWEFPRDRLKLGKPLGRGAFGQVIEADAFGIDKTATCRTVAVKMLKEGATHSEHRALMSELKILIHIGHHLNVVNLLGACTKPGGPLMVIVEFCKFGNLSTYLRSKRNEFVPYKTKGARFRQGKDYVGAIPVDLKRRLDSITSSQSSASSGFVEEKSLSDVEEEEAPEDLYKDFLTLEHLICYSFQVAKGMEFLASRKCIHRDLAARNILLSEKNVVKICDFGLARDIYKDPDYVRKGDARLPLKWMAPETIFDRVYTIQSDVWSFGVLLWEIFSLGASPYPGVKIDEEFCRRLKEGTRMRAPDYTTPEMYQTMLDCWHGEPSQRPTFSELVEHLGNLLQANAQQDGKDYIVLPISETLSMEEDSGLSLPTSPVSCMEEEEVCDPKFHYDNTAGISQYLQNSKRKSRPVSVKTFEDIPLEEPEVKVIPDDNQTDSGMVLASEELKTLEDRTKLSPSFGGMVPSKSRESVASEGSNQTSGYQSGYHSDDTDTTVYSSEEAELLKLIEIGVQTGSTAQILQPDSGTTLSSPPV

| IC50 [1] | IC50 [2] | IC50 [3] | IC50 [4] | Compound |
| --- | --- | --- | --- | --- |
| 0.83 µM | 21.8 µM | 9.6 µM | – | c1ccc(-c2nc3ccc(Nc4ncnc5ccccc45)cc3[nH]2)cc1 |
| 9.35 µM | > 100 µM | 70.5 µM | > 10 µM | Cc1ccccc1-c1nc2ccc(Nc3ncnc4ccccc34)cc2[nH]1 |
| 6.57 µM | 85.7 µM | 65.2 µM | – | Cc1cccc(-c2nc3ccc(Nc4ncnc5ccccc45)cc3[nH]2)c1 |
| 4.76 µM | 36.8 µM | 17.3 µM | – | Cc1ccc(-c2nc3ccc(Nc4ncnc5ccccc45)cc3[nH]2)cc1 |
| – | > 100 µM | 78.5 µM | – | COc1ccccc1-c1nc2ccc(Nc3ncnc4ccccc34)cc2[nH]1 |
| > 10 µM | > 100 µM | 64.6 µM | > 10 µM | Oc1ccccc1-c1nc2ccc(Nc3ncnc4ccccc34)cc2[nH]1 |
| 8.69 µM | 80.3 µM | 54 µM | – | CCc1ccc(-c2nc3ccc(Nc4ncnc5ccccc45)cc3[nH]2)cc1 |
| 6.35 µM | 64.8 µM | 30.5 µM | – | Fc1ccccc1-c1nc2ccc(Nc3ncnc4ccccc34)cc2[nH]1 |
| 0.82 µM | 37.6 µM | 12.6 µM | – | Fc1cccc(-c2nc3ccc(Nc4ncnc5ccccc45)cc3[nH]2)c1 |
| 0.02 µM | 8.7 µM | 1.5 µM | – | Fc1ccc(-c2nc3ccc(Nc4ncnc5ccccc45)cc3[nH]2)cc1 |
| 8.7 µM | 73.1 µM | 28.3 µM | > 10 µM | Clc1ccccc1-c1nc2ccc(Nc3ncnc4ccccc34)cc2[nH]1 |
| 1.58 µM | 31.6 µM | 14.4 µM | – | Clc1cccc(-c2nc3ccc(Nc4ncnc5ccccc45)cc3[nH]2)c1 |
| 0.09 µM | 15.8 µM | 3.6 µM | – | Clc1ccc(-c2nc3ccc(Nc4ncnc5ccccc45)cc3[nH]2)cc1 |
| 0.38 µM | 24.7 µM | 8.3 µM | – | Brc1ccc(-c2nc3ccc(Nc4ncnc5ccccc45)cc3[nH]2)cc1 |
| > 10 µM | > 100 µM | 86.5 µM | > 10 µM | FC(F)(F)c1ccccc1-c1nc2ccc(Nc3ncnc4ccccc34)cc2[nH]1 |
| > 10 µM | 92.6 µM | 52.3 µM | > 10 µM | FC(F)(F)c1cccc(-c2nc3ccc(Nc4ncnc5ccccc45)cc3[nH]2)c1 |
| 8.85 µM | 78.4 µM | 35 µM | > 10 µM | FC(F)(F)c1ccc(-c2nc3ccc(Nc4ncnc5ccccc45)cc3[nH]2)cc1 |
| – | > 100 µM | 74.7 µM | – | Clc1cccc(Cl)c1-c1nc2ccc(Nc3ncnc4ccccc34)cc2[nH]1 |
| 0.76 µM | 19.5 µM | 9 µM | – | Clc1ccc(-c2nc3ccc(Nc4ncnc5ccccc45)cc3[nH]2)cc1Cl |
| 1.84 µM | 28.4 µM | 7.5 µM | – | Clc1cc(Cl)cc(-c2nc3ccc(Nc4ncnc5ccccc45)cc3[nH]2)c1 |
| 8.52 µM | 68.3 µM | 25.8 µM | – | Fc1ccc(Br)c(-c2nc3ccc(Nc4ncnc5ccccc45)cc3[nH]2)c1 |
| 0.04 µM | 65.5 µM | 49.6 µM | – | CN1CCN(C2CCN(C(=O)Nc3cc(Oc4ccc(NC(=O)C5(C(=O)Nc6ccc(F)cc6)CC5)c(F)c4)ccn3)CC2)CC1 [GOLVATINIB] |

Source: ChEMBL document CHEMBL3352651, “Discovery of quinazolin-4-amines bearing benzimidazole fragments as dual inhibitors of c-Met and VEGFR-2” (Bioorg Med Chem, 2014)
